Results on 19 molecules are retold here after patent publication US20080234276A1, “Heterocyclic Triazines as Hypoxic Selective Protein Kinase Inhibitors” (SENTINEL ONCOLOGY LIMITED, priority 2005, published 2008).

Holding throughout (format): biochemical
The target in one assay is T1, Aurora-A (h) (Homo sapiens, UniProt O14965).
T1 construct: purchased Upstate Ltd
T1 sequence (O14965 1-403): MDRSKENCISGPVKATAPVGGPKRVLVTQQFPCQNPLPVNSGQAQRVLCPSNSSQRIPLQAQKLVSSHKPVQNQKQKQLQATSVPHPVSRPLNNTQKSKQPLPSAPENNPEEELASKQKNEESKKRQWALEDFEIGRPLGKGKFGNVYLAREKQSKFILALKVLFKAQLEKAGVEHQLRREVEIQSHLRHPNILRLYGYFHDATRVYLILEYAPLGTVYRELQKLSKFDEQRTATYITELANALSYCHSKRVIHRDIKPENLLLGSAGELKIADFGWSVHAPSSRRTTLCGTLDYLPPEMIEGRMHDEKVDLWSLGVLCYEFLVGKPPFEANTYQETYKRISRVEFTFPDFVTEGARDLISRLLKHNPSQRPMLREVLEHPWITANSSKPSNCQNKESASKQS
As to the kind of experiment: Aurora-A (h) kinase assay (Upstate, 33P-ATP filtermat). Particulars: 100 uM of inhibitor, ATP 15 uM; for inhibition at 100 µM: read-out: AuroraA (h) % inhibition. How it is done: (§1) The compounds of the invention prepared in Examples 1-32 were tested for kinase inhibition against a range of common protein kinases. All kinase assays were conducted at Upstate Ltd, Gemini Crescent, Dundee Technology Park, Dundee, DD2 1SW, UK in accordance with its standard protocols as follows:
In a final reaction volume of 25 μl, Aurora-A (h) (5-10 mU) is incubated with 8 mM MOPS pH 7.0, 0.2 mM EDTA, 200 μM LRRASLG (Kemptide), 10 mM MgAcetate and […]-33P-ATP] (specific activity approx. 500 cpm/pmol, concentration as required). The reaction is initiated by the addition of the MgATP mix. After incubation for 40 minutes at room temperature, the reaction is stopped by the addition of 5 μl of a 3% phosphoric acid solution. 10 μl of the reaction is then spotted onto a P30 filtermat and washed three times for 5 minutes in 50 mM phosphoric acid and once in methanol prior to drying and scintillation counting.
(§2) Data for compounds. ATP concentrations are: Arg=45 uM; abl=45 uM; AuroraA=15 uM; Chk1=90 uM; KDR=90 uM; P70S6=15 uM. Figures represent the % inhibition when tested at 100 uM of inhibitor.

The target of a further assay is T2, CHK1 (h) (Homo sapiens, UniProt O14757).
T2 construct: purchased Upstate Ltd
T2 sequence (O14757 1-476): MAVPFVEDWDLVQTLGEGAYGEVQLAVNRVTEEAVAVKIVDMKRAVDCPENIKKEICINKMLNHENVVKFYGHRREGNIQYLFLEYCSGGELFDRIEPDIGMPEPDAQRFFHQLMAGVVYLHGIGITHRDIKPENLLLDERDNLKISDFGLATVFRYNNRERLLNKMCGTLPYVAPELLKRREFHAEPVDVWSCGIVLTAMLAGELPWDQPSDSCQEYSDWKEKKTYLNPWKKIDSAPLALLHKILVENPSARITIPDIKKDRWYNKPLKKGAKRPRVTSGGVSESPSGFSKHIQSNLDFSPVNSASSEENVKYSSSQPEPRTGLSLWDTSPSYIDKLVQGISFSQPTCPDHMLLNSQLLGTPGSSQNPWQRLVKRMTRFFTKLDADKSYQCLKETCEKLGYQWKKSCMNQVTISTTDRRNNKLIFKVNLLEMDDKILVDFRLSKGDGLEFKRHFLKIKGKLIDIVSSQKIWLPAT
Description: CHK1 (h) kinase assay (Upstate, 33P-ATP filtermat). Particulars: 100 uM of inhibitor; ATP 90 uM. Here is the method: as §1
In a final reaction volume of 25 μl, CHK1 (h) (5-10 mU) is incubated with 8 mM MOPS pH 7.0, 0.2 mM EDTA, 200 μM […], 10 mM MgAcetate and […]-33P-ATP] (specific activity approx. 500 cpm/pmol, concentration as required). The reaction is initiated by the addition of the MgATP mix. After incubation for 40 minutes at room temperature, the reaction is stopped by the addition of 5 μl of a 3% phosphoric acid solution. 10 μl of the reaction is then spotted onto a P30 filtermat and washed three times for 5 minutes in 75 mM phosphoric acid and once in methanol prior to drying and scintillation counting.
as §2

For another assay, the target named is T3, p70S6K (h) (Homo sapiens, UniProt P23443).
T3 construct: purchased Upstate Ltd
As to the kind of experiment: p70S6K (h) kinase assay (Upstate, 33P-ATP filtermat). As to conditions: 100 uM of inhibitor, ATP 15 uM; for inhibition at 100 µM: read-out: P70S6 (h) % inhibition. Here is the method:
as §1
(§3) In a final reaction volume of 25 μl, p70S6K (h) (5-10 mU) is incubated with 8 mM MOPS pH 7.0, 0.2 mM EDTA, 100 μM KKRNRTLTV, 10 mM MgAcetate and [[…]-33P-ATP] (specific activity approx. 500 cpm/pmol, concentration as required). The reaction is initiated by the addition of the MgATP mix. After incubation for 40 minutes at room temperature, the reaction is stopped by the addition of 5 μl of a 3% phosphoric acid solution. 10 μl of the reaction is then spotted onto a P30 filtermat and washed three times for 5 minutes in 75 mM phosphoric acid and once in methanol prior to drying and scintillation counting.
as §2

For a further assay, the target named is T4, KDR (h) (Homo sapiens, UniProt P35968).
T4 construct: purchased Upstate Ltd
Description: KDR (h) kinase assay (Upstate, 33P-ATP filtermat). As to conditions: 100 uM of inhibitor; ATP 90 uM. How it is done:
as §1
as §3, with “KDR” for “p70S6K”, “0.33 mg/ml myelin basic protein,” for “100 μM KKRNRTLTV,”
as §2

The target in another assay is T5, Arg (h) (Homo sapiens, UniProt P42684).
T5 construct: purchased Upstate Ltd
As to the kind of experiment: Arg (h) kinase assay (Upstate, 33P-ATP filtermat). As to conditions: 100 uM of inhibitor; ATP 45 uM. Here is the method:
as §1
as §3, with “Arg” for “p70S6K”, “50” for “100”, “EAIYAAPFAKKK,” for “KKRNRTLTV,”
as §2

A further assay deals with T6, Abl (h) (Homo sapiens, UniProt P00519).
T6 construct: purchased Upstate Ltd
Description: Abl (h) kinase assay (Upstate, 33P-ATP filtermat). Particulars: 100 uM of inhibitor; ATP 45 uM. How it is done:
as §1
as §3, with “Abl” for “p70S6K”, “50” for “100”, “EAIYAAPFAKKK,” for “KKRNRTLTV,”
as §2

T3 sequence (P23443 whole entry): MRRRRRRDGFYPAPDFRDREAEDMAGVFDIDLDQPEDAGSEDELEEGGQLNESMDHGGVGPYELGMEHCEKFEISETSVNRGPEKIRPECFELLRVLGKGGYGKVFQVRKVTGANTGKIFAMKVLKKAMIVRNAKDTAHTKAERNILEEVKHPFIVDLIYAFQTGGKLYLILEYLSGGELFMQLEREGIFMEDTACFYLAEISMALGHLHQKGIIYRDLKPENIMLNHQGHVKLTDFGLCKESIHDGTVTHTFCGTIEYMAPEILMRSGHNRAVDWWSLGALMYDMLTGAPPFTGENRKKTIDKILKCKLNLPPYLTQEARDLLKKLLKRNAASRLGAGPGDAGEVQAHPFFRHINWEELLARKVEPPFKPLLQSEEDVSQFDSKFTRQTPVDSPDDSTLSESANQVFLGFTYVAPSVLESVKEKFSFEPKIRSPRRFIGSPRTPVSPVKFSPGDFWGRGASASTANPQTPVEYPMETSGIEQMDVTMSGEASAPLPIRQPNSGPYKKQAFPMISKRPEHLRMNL
T4 sequence (P35968 20-1356): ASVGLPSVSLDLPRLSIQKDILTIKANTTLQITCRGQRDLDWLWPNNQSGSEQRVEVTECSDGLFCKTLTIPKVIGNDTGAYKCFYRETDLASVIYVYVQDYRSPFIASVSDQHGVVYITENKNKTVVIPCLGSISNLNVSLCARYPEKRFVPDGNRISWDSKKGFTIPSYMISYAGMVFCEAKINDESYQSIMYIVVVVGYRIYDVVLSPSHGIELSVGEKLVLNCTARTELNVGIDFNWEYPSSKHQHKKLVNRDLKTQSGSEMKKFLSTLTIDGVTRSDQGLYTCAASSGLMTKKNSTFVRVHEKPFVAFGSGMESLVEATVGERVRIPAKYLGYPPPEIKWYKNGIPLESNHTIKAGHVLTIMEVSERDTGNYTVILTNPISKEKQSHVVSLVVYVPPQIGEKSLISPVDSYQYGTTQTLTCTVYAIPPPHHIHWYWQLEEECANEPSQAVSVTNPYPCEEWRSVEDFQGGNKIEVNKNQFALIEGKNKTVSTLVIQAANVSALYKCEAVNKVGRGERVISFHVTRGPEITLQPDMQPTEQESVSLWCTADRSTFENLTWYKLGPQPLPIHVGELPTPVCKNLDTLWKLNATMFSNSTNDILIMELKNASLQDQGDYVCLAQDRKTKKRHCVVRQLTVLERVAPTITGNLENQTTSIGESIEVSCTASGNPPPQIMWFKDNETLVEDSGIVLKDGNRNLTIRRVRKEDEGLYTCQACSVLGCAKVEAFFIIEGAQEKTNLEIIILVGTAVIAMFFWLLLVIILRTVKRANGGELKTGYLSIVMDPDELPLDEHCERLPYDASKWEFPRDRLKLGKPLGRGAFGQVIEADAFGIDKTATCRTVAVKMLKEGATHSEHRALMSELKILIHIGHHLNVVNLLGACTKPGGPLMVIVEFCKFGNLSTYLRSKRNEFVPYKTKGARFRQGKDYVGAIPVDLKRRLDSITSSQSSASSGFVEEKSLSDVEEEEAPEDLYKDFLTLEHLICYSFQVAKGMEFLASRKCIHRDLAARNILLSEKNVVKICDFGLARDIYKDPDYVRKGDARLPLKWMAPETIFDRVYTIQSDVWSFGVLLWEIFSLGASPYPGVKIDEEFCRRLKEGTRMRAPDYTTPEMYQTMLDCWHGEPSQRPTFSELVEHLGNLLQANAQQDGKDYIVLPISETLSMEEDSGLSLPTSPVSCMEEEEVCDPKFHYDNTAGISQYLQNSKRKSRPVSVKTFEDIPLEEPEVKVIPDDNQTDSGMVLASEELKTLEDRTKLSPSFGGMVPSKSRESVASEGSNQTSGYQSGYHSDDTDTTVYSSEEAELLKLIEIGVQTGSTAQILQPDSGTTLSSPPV
T5 sequence (P42684 whole entry): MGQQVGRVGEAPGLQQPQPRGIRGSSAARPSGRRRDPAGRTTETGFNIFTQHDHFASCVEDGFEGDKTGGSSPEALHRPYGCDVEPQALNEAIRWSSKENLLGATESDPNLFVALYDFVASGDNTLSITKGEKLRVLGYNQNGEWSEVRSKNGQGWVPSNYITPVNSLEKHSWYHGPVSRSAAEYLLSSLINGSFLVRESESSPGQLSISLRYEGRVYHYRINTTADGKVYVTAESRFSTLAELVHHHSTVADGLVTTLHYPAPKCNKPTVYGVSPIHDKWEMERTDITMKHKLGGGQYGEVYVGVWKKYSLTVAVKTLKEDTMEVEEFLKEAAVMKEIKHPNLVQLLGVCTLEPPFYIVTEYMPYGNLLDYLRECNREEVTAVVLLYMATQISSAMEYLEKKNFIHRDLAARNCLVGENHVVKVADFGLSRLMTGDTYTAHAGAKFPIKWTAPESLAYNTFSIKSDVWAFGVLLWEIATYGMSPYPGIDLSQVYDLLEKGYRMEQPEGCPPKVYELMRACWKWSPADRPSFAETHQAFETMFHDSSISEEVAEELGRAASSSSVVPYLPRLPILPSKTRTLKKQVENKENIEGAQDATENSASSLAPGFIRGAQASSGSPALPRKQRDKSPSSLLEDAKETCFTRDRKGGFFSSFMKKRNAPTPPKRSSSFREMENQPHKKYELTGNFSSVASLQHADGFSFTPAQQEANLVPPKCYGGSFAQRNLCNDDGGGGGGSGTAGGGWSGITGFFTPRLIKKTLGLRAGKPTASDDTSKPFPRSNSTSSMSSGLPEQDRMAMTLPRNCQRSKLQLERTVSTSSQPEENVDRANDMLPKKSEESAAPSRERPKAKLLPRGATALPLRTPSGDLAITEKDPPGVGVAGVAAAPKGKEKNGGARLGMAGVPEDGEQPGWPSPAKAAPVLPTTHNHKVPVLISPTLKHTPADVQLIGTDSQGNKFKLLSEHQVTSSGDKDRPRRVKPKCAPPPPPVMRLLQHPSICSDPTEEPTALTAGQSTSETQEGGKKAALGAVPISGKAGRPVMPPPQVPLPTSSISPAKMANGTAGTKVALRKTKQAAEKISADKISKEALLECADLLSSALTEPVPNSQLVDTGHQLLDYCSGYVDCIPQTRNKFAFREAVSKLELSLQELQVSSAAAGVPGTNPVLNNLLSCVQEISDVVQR
T6 sequence (P00519 whole entry): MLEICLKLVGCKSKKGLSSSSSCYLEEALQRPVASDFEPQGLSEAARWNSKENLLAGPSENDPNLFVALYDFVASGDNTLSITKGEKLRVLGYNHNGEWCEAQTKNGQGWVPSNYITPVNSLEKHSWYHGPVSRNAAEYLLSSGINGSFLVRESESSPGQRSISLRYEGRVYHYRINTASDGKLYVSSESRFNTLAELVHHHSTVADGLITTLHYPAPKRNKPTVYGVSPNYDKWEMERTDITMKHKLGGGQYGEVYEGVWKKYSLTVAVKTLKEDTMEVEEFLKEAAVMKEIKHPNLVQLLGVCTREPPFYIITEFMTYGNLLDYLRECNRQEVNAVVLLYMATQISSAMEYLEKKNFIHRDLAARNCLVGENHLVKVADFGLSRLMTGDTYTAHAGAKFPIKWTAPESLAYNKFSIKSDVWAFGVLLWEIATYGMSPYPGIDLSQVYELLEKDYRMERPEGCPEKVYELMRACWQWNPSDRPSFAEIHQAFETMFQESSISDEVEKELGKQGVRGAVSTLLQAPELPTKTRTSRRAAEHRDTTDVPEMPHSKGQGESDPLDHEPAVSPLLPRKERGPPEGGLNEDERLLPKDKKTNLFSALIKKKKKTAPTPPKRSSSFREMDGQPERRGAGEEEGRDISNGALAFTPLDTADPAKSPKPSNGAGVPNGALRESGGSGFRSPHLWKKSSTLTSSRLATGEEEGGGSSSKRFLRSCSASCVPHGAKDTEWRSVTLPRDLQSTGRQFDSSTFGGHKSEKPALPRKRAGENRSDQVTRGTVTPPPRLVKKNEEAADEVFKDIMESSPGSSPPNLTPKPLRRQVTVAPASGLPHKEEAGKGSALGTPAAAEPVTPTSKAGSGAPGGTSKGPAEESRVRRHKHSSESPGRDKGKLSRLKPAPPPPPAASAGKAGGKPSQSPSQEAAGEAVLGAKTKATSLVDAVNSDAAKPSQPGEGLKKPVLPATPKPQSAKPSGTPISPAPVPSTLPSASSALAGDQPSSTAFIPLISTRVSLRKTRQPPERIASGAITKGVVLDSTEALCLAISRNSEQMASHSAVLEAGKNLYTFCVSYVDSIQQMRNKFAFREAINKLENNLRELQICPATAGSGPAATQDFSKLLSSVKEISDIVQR

With `[O-][n+]1nc(Nc2cccnc2)nc2ccccc21` [Example 4, (1-Oxy-benzo[1,2,4]triazin-3-yl)-pyridin-3-yl-amine], at Aurora-A (h), the “AuroraA (h) % inhibition” value is 64%. Also, the “Chk1 (h) % inhibition” value at CHK1 (h) came out at 14%. In addition, the “P70S6 (h) % inhibition” value on p70S6K (h) is 0%.

As usually defined, the inhibition is how much of the control response was suppressed. At CHK1 (h), `CN(C)CCCOc1ccc(Cl)cc1NC(=O)Nc1nnc2ccccc2n1` [Example 9, 1-Benzo[1,2,4]triazin-3-yl-3-[5-chloro-2-(3-dimethylamino-propoxy)-phenyl]-urea] gave an inhibition at 100 µM of 93%.

`Cc1cc(Nc2nc3ccccc3[n+]([O-])n2)n[nH]1` [Example 10, (5-Methyl-1H-pyrazol-3-yl)-(1-oxy-benzo[1,2,4]triazin-3-yl)-amine]: the “AuroraA (h) % inhibition” value at Aurora-A (h) was 40%. Moreover, the “Chk1 (h) % inhibition” value at CHK1 (h) was determined as 20%.

`[O-][n+]1nc(-c2cn[nH]c2)nc2ccccc21` [Example 12, 3-(1H-Pyrazol-4-yl)-benzo[1,2,4]triazine 1-oxide]: the inhibition at 100 µM at Aurora-A (h) came out at 69%; at CHK1 (h), 3%; against KDR (h) it was 97%; at p70S6K (h), 87%.

On to `c1ccc2nc(-c3cn[nH]c3)nnc2c1` [Example 13, 3-(1H-Pyrazol-4-yl)-benzo[1,2,4]triazine], for which the inhibition at 100 µM at Aurora-A (h) came to 90%; against CHK1 (h), 13%; against KDR (h), 80%; at p70S6K (h), 92%.

As for `Nc1nnc2cc(-c3ccn[nH]3)ccc2n1` [Example 14, 7-(2H-Pyrazol-3-yl)-benzo[1,2,4]triazin-3-ylamine], the inhibition at 100 µM on Aurora-A (h) turned out to be 81%; on CHK1 (h), 20%; against KDR (h), 89%; at p70S6K (h), 47%.

As for `Nc1nc2ccc(-c3ccn[nH]3)cc2[n+]([O-])n1` [Example 15, 1-Oxy-7-(2H-pyrazol-3-yl)-benzo[1,2,4]triazin-3-ylamine], at Aurora-A (h), the “AuroraA (h) % inhibition” value is recorded as 90%. Moreover, the “Chk1 (h) % inhibition” value on CHK1 (h) is recorded as 10%. For the same molecule, the “KDR (h) % inhibition” value on KDR (h) was 46%. Further, the “P70S6 (h) % inhibition” value at p70S6K (h) is on record as 29%.

Regarding `c1ccc2nc(-c3cc[nH]n3)nnc2c1` [Example 16, 3-(1H-Pyrazol-3-yl)-benzo[1,2,4]triazine], the inhibition at 100 µM at Aurora-A (h) worked out at 41%; on KDR (h), 17%; on p70S6K (h) it was 10%.

`[O-][n+]1nc(-c2cc[nH]n2)nc2ccccc21` [Example 17, 3-(1H-Pyrazol-3-yl)-benzo[1,2,4]triazine 1-oxide]: the inhibition at 100 µM worked out at 39% on Aurora-A (h), 0% against KDR (h) and 0% on p70S6K (h).

The molecule `O=C(Nc1ccc2nncnc2c1)Nc1cnccn1` [Example 18, 1-Benzo[1,2,4]triazin-6-yl-3-pyrazin-2-yl-urea] returned an inhibition at 100 µM against CHK1 (h) of 23%.

As for `c1ccc2nc(Nc3ccc(N4CCNCC4)nc3)nnc2c1` [Example 19, Benzo[1,2,4]triazin-3-yl-(6-piperazin-1-yl-pyridin-3-yl)-amine], the inhibition at 100 µM was found to be 95% against Arg (h), 89% against Abl (h) and 79% at Aurora-A (h).

Take `[O-][n+]1nc(Nc2cccnc2)nc2cc(Cl)ccc21` [Example 22, (6-Chloro-1-oxy-benzo[1,2,4]triazin-3-yl)-pyridin-3-yl-amine]: the “AuroraA (h) % inhibition” value at Aurora-A (h) amounted to 82%.

In the case of `[O-][n+]1nc(Nc2cccnc2)nc2cc(-c3ccccc3)ccc21` [Example 24, (1-Oxy-6-phenyl-benzo[1,2,4]triazin-3-yl)-pyridin-3-yl-amine], on Aurora-A (h), the “AuroraA (h) % inhibition” value worked out at 92%.

Turning to `Nc1nc2cc(N3CCNCC3)ccc2[n+]([O-])n1` [Example 25, 1-Oxy-6-piperazin-1-yl-benzo[1,2,4]triazin-3-ylamine], on KDR (h), the “KDR (h) % inhibition” value is 18%. Moreover, the “P70S6 (h) % inhibition” value at p70S6K (h) is listed as 43%.

`Nc1nnc2ccc(N3CCNCC3)cc2n1` [Example 26, 6-Piperazin-1-yl-benzo[1,2,4]triazin-3-ylamine]: the figures for the inhibition at 100 µM at KDR (h) and on p70S6K (h) were 98% and 37%, respectively.

With `Cl.Nc1nc2cc(OCC3CCNCC3)ccc2[n+]([O-])n1` [Example 27, 1-Oxy-6-(piperidin-4-ylmethoxy)-benzo[1,2,4]triazin-3-ylamine.hydrochloride], at KDR (h), the “KDR (h) % inhibition” value came to 3%. Further, the “P70S6 (h) % inhibition” value at p70S6K (h) is given as 62%.

As for `Cl.Nc1nnc2ccc(OCC3CCNCC3)cc2n1` [Example 28, 6-(Piperidin-4-ylmethoxy)-benzo[1,2,4]triazin-3-ylamine.hydrochloride], on KDR (h), the “KDR (h) % inhibition” value is 6%. For the same molecule, the “P70S6 (h) % inhibition” value at p70S6K (h) amounted to 47%.

Consider `Nc1nc2cc(OCCc3ccc(Cl)c(Cl)c3)ccc2[n+]([O-])n1` [Example 29, 6-[2-(3,4-Dichloro-phenyl)-ethoxy]-1-oxy-benzo[1,2,4]triazin-3-ylamine], for which, at KDR (h), the “KDR (h) % inhibition” value is listed as 0%. Besides, at p70S6K (h), the “P70S6 (h) % inhibition” value was 49%.

As to `Nc1nnc2ccc(OCCc3ccc(Cl)c(Cl)c3)cc2n1` [Example 30, 6-[2-(3,4-Dichloro-phenyl)-ethoxy]-benzo[1,2,4]triazin-3-ylamine], the inhibition at 100 µM against KDR (h) is 11%; at p70S6K (h), 52%.
